Results published in patent publication US7132563B1, “Convenient method for the preparation of no-carrier-added O-(2-[18F]fluoroethyl)-L-tyrosine)” (Institute of Nuclear Energy Research, priority 2005, dated 2006).
Values joined by “and” are separate entries in the source; they are usually repeats but may differ in a detail not shown here. Identical values can stand only once.

Columns and labels:
[1] = system: F98 glioma implanted Fischer 344 rat; assay: Biological distribution of L-[^18F]FET in F98 glioma-bearing Fischer 344 rat; type: in vivo
Protocol: (1) Total of twenty Fischer 344 male rats will be assessed in vivo for L-[^18F]FET biological distribution. Use the intersection of bregma and sagittal midlines as original point; so as to implant F98 glioma cells (1×10^5 cells/10 μl) at the place of 3 mm left 5 mm upward and 5 mm depth. Biological distribution test will be carry out after 11˜12 days of brain tumor implantation.
(2) Different volume of radioactive level is injected, injected volume of L-[^18F]FET for each Fischer 344 rat is 200˜300 μl, that is approximately 200˜250 μCi of activity.
(3) Inject L-[^18F]FET via tail vein, and rats are sacrificed at 15, 30, 60, 90 and 120 minutes.
(4) Dissection of rat organ is right after sacrifice. Scissors off chest and abdomen fur alone the line from genital pore upward to jowl. Next, scissors off chest above xiphisternal transversely. Open ribs aside, take blood sample from venous sinus with 0.5 ml syringe. Withdraw the needle after depletion of blood and collect the extracted heart. Collect the lung lobes with forcep.
(5) Scissors off abdominal muscle from genital pore upward to the position below xiphisternal longitudinally. Then, scissors off the opening of upper and lower edges transversely, everts muscle layers to both sides and expose celiac organs. Search for bladder in lower abdomen and sequentially removes stomach, liver, spleen, small intestine, large intestine, kidney, and muscle.
(6) After turn over the rat, scissors off fur of shoulder and removes exposed subcutaneous tumor. Cut scalp upward at lower margin of cranium above foramen magnum and expose cranial bone. Then, cut cervical portion transversely at foramen magnum and expose spinal cord. Inserts foramen magnum with scissors' tip while attach the inner surface of cranium; such that scissors' tip can reach the frontal edge of cranial cavity in order to scissor off the center of cranium. Use scissors to open cranium aside and expose brain tissue. Alone skull base insert scissors deeply to the front edge of cranial cavity in order to remove left-brain, right-brain and brain tumor.
(7) Weight all organ samples; measure radioactivity with γ-counter and convert to % ID/g (% injection dose/g organ) of each organ for estimate the biological distribution of L-[^18F]FET. […] According to reports, L-[^18F]FET can pass through blood brain barrier (BBB) and enter brain by way of L amino acid transporter system. […] Tumor- to-normal brain ratio of L-[^18F]FET at 15, 30, 60, 90 and 120 minutes are 1.54, 1.74, 3.16, 3.14 and 2.34 respectively. […] Some papers reported that patient with tumor observes no significant accumulation of radioactivity in pancreas when use positron emission tomography (PET), the discrepant results were assumed that human and rat have different metabolic pathway. Furthermore, biological distribution study of L-[^18F]FET indicated radioactivity accumulation in tumor cells (expressed by % ID/g) are much higher than other normal organs (left-brain, small intestine, kidney, liver, blood and muscle) except pancreas, this means L-[^18F]FET can be a potential PET agent for substantially different site of tumor.

F98 glioma cells = assay: L-[^18F]FET uptake by F98 glioma tumor cells; type: cell-based, rat; details: for uptake ratio (radioactivity uptake of cells / total added radioactivity): 10 μCi/well
Protocol: (1) In five six-well plates, put 1×10^6 F98 glioma cells and 2 ml DMEM (1 g glucose/l) into three wells.
(2) Total of five time points (2, 5, 10, 30 minute and 1 hour) in this experiment and each time point use one six-well plate.
(3) Predetermined activity of L-[^18F]FET or [^18F]FDG (10 μCi/well) is added into each well during the experiment. Radioactivity uptake of cells divided by total added radioactivity can obtain its calculated uptake ratio.
F98 glioma cells intake L-[^18F]FET rapidly and maximal accumulation will reach after 10 minutes (uptake ratio 0.47%). As cell cannot metabolize L-[^18F]FET, therefore, the rate of L-[^18F]FET transportation by the cells become balance after ten minutes when add L-[^18F]FET; the accumulation of L-[^18F]FET in glioma cells only slightly decrease after 1 hour (uptake ratio 0.41%).

[2] = system: F98 glioma implanted Fischer 344 rat; assay: PET and microPET imaging of tumor-bearing rat with L-[^18F]FET; type: in vivo; details: 400 μCi via tail vein
Protocol: (1) Positron emission tomography (PET) studies of tumor-bearing rat (Fischer 344) with L-[^18F]FET will be carry out after 11˜12 days of brain tumor (F98 glioma) implantation.
(2) Producing processes of L-[^18F]FET as described above, and estimates its administrating amount of agent according to the level of radioactivity.
(3) At the very beginning, inject 400 μCi of L-[^18F]FET into tail vein. Temporarily anesthetize rats with ether at time of 0.5, 1, 1.5 and 2 hours. Fix rat on transparent acrylic board and place on PET table after securing stretched limbs on the board. Continuously anesthetize rats with isoflurane gas. Align implant portion of head with PET machine as to assure the fixation of original imaging position.
(4) Adjust background value by blank scan before PET imaging.
(5) Use […] radioactive source proceed transmission scan for adjust tissue attenuation.
(6) Commence PET and microPET imaging. Perform image processing after reconstruction of acquired image data; the coronal and cross section scans show in FIGS. 3 and 9. […] In contrast to tumor site, normal tissue have lower radioactivity accumulation of L-[^18F]FET because of lower amino acid requirement.

[3] = 15 min after tail vein injection, tumor-bearing rat
[4] = 30 min after tail vein injection, tumor-bearing rat
[5] = 60 min after tail vein injection, tumor-bearing rat
[6] = 90 min after tail vein injection, tumor-bearing rat
[7] = 120 min after tail vein injection, tumor-bearing rat

`N[C@@H](Cc1ccc(OCC[18F])cc1)C(=O)O` [L-[^18F]FET, O-(2-[^18F]fluoroethyl)-L-Tyrosine] was tested, and the “accumulated radioactivity in Blood” value [1, 3] was 0.41 ± 0.03 % ID/g, the “accumulated radioactivity in Heart” value [1, 3] was 0.30 ± 0.06 % ID/g and the “accumulated radioactivity in Kidney” value [1, 3] was 0.33 ± 0.01 % ID/g. The “accumulated radioactivity in Large intestine” value [1, 3] was 0.21 ± 0.01 % ID/g, the “accumulated radioactivity in Left brain” value [1, 3] was 0.08 ± 0.01 % ID/g and the “accumulated radioactivity in Liver” value [1, 3] was 0.27 ± 0.06 % ID/g. For the same molecule, the “accumulated radioactivity in Lung” value [1, 3] was 0.32 ± 0.05 % ID/g, the “accumulated radioactivity in Muscle” value [1, 3] was 0.19 ± 0.03 % ID/g and the “accumulated radioactivity in Pancreas” value [1, 3] was 0.98 % ID/g and 0.98 ± 0.25 % ID/g. For the same molecule, the “accumulated radioactivity in Right brain” value [1, 3] was 0.07 ± 0.02 % ID/g, the “accumulated radioactivity in Small intestine” value [1, 3] was 0.23 ± 0.11 % ID/g and the “accumulated radioactivity in Spleen” value [1, 3] was 0.31 ± 0.08 % ID/g. For the same molecule, the “accumulated radioactivity in Stomach” value [1, 3] was 0.24 ± 0.05 % ID/g, the “accumulated radioactivity in Tumor” value [1, 3] was 0.12 ± 0.02 % ID/g and the Tumor-to-normal brain ratio ([1]; 15 minutes after injection) was 1.54. For the same molecule, the “accumulated radioactivity in Blood” value [1, 4] was 0.39 ± 0.03 % ID/g, the “accumulated radioactivity in Heart” value [1, 4] was 0.40 ± 0.07 % ID/g and the “accumulated radioactivity in Kidney” value [1, 4] was 0.34 ± 0.06 % ID/g. For the same molecule, the “accumulated radioactivity in Large intestine” value [1, 4] was 0.28 ± 0.05 % ID/g, the “accumulated radioactivity in Left brain” value [1, 4] was 0.25 ± 0.05 % ID/g and the “accumulated radioactivity in Liver” value [1, 4] was 0.37 ± 0.07 % ID/g. For the same molecule, the “accumulated radioactivity in Lung” value [1, 4] was 0.43 ± 0.09 % ID/g, the “accumulated radioactivity in Muscle” value [1, 4] was 0.28 ± 0.01 % ID/g and the “accumulated radioactivity in Pancreas” value [1, 4] was 1.76 % ID/g and 1.76 ± 0.16 % ID/g. The “accumulated radioactivity in Right brain” value [1, 4] was 0.21 ± 0.03 % ID/g, the “accumulated radioactivity in Small intestine” value [1, 4] was 0.52 ± 0.26 % ID/g and the “accumulated radioactivity in Spleen” value [1, 4] was 0.50 ± 0.11 % ID/g. For the same molecule, the “accumulated radioactivity in Stomach” value [1, 4] was 0.36 ± 0.06 % ID/g, the “accumulated radioactivity in Tumor” value [1, 4] was 0.43 ± 0.10 % ID/g and the Tumor-to-normal brain ratio ([1]; 30 minutes after injection) was 1.74. For the same molecule, the “accumulated radioactivity in Blood” value [1, 5] was 0.38 ± 0.00 % ID/g, the “accumulated radioactivity in Heart” value [1, 5] was 0.43 ± 0.07 % ID/g and the “accumulated radioactivity in Kidney” value [1, 5] was 0.41 ± 0.08 % ID/g. The “accumulated radioactivity in Large intestine” value [1, 5] was 0.42 ± 0.06 % ID/g, the “accumulated radioactivity in Left brain” value [1, 5] was 0.40 ± 0.06 % ID/g and the “accumulated radioactivity in Liver” value [1, 5] was 0.41 ± 0.06 % ID/g. For the same molecule, the “accumulated radioactivity in Lung” value [1, 5] was 0.43 ± 0.07 % ID/g, the “accumulated radioactivity in Muscle” value [1, 5] was 0.36 ± 0.04 % ID/g and the “accumulated radioactivity in Pancreas” value [1, 5] was 2.55 % ID/g and 2.55 ± 0.31 % ID/g. The “accumulated radioactivity in Right brain” value [1, 5] was 0.34 ± 0.03 % ID/g, the “accumulated radioactivity in Small intestine” value [1, 5] was 0.65 ± 0.04 % ID/g and the “accumulated radioactivity in Spleen” value [1, 5] was 0.51 ± 0.09 % ID/g. The “accumulated radioactivity in Stomach” value [1, 5] was 0.40 ± 0.05 % ID/g, the “accumulated radioactivity in Tumor” value [1, 5] was 1.26 ± 0.22 % ID/g and the Tumor-to-normal brain ratio ([1]; 60 minutes after injection) was 3.16. For the same molecule, the “accumulated radioactivity in Blood” value [1, 6] was 0.37 ± 0.03 % ID/g, the “accumulated radioactivity in Heart” value [1, 6] was 0.47 ± 0.02 % ID/g and the “accumulated radioactivity in Kidney” value [1, 6] was 0.42 ± 0.07 % ID/g. For the same molecule, the “accumulated radioactivity in Large intestine” value [1, 6] was 0.46 ± 0.04 % ID/g, the “accumulated radioactivity in Left brain” value [1, 6] was 0.48 ± 0.14 % ID/g and the “accumulated radioactivity in Liver” value [1, 6] was 0.49 ± 0.01 % ID/g. For the same molecule, the “accumulated radioactivity in Lung” value [1, 6] was 0.45 ± 0.02 % ID/g, the “accumulated radioactivity in Muscle” value [1, 6] was 0.44 ± 0.10 % ID/g and the “accumulated radioactivity in Pancreas” value [1, 6] was 2.28 % ID/g and 2.28 ± 0.76 % ID/g. For the same molecule, the “accumulated radioactivity in Right brain” value [1, 6] was 0.48 ± 0.08 % ID/g, the “accumulated radioactivity in Small intestine” value [1, 6] was 0.43 ± 0.11 % ID/g and the “accumulated radioactivity in Spleen” value [1, 6] was 0.48 ± 0.11 % ID/g. For the same molecule, the “accumulated radioactivity in Stomach” value [1, 6] was 0.43 ± 0.04 % ID/g, the “accumulated radioactivity in Tumor” value [1, 6] was 1.49 % ID/g and 1.49 ± 0.40 % ID/g and the Tumor-to-normal brain ratio ([1]; 90 minutes after injection) was 3.14. The “maximum accumulation in normal brain tissue” value ([1]; 90 minutes after injection, tumor-bearing rat) was 0.48 % ID/g, the “accumulated radioactivity in Blood” value [1, 7] was 0.36 ± 0.03 % ID/g and the “accumulated radioactivity in Heart” value [1, 7] was 0.43 ± 0.07 % ID/g. The “accumulated radioactivity in Kidney” value [1, 7] was 0.41 ± 0.09 % ID/g, the “accumulated radioactivity in Large intestine” value [1, 7] was 0.38 ± 0.09 % ID/g and the “accumulated radioactivity in Left brain” value [1, 7] was 0.43 ± 0.09 % ID/g. For the same molecule, the “accumulated radioactivity in Liver” value [1, 7] was 0.41 ± 0.09 % ID/g, the “accumulated radioactivity in Lung” value [1, 7] was 0.40 ± 0.06 % ID/g and the “accumulated radioactivity in Muscle” value [1, 7] was 0.37 ± 0.10 % ID/g. The “accumulated radioactivity in Pancreas” value [1, 7] was 2.24 % ID/g and 2.24 ± 0.72 % ID/g, the “accumulated radioactivity in Right brain” value [1, 7] was 0.34 ± 0.04 % ID/g and the “accumulated radioactivity in Small intestine” value [1, 7] was 0.41 ± 0.09 % ID/g. For the same molecule, the “accumulated radioactivity in Spleen” value [1, 7] was 0.47 ± 0.04 % ID/g, the “accumulated radioactivity in Stomach” value [1, 7] was 0.41 ± 0.03 % ID/g and the “accumulated radioactivity in Tumor” value [1, 7] was 1.02 ± 0.16 % ID/g. The Tumor-to-normal brain ratio ([1]; 120 minutes after injection) was 2.34, the “time of maximum accumulation in brain tumor and normal brain tissue” value ([1]; biological distribution, tumor-bearing rat) was 90 min and the “radioactivity in urine sample (excretion via urine)” value ([1]; tumor-bearing rat) was “high level of radioactivity”. The “time to maximal accumulation in cells” value (F98 glioma cells) was 10 min, the “uptake ratio (radioactivity uptake of cells / total added radioactivity)” value (F98 glioma cells; after 10 minutes (maximal accumulation)) was 0.47% and the “uptake ratio (radioactivity uptake of cells / total added radioactivity)” value (F98 glioma cells; after 1 hour) was 0.41%. The “radioactivity accumulation in brain tumor on PET imaging” value ([2]; F98 glioma Fischer 344 rat) was “significant radioactivity accumulation in brain tumor” and the “time of maximum uptake in brain tumor on PET imaging” value ([2]; imaging at 0.5, 1, 1.5 and 2 hours) was 90 min.
